# “Also recorded” adds a separate entry of the source.
# How the values were obtained:
# εRNA = test: RNase protection of end-labeled εRNA (B. Cereus RNase); type: binding, Hepatitis B virus; conditions: compound 0 to 200 μM, 25° C., 30 minutes
# Method: RNase protection was assessed by incubating an end-labeled RNA with the amount of RNase needed to yield a ladder representing single cut events at each possible cleavage site in the RNA structure (based upon a gel electrophoresis analysis). The presence of a ligand bound to the RNA renders the binding site inaccessible to the RNases and therefore, the binding site will be shown by the disappearance or weakening of specific bands in the digestion pattern (FIGS. 258A and 258B).
# Reaction mixtures (10 μl) containing 50 mM Tris-HCl, pH 7.5, 50 mM KCl, 0.5 mg/ml rRNA (as a carrier), 0.5 pmol of 3′-end ^32P-labeled εRNA, 0.05 units of B. Cereus RNase, and compound 5 at concentrations between 0 and 200 μM were incubated at 25° C. for 30 minutes. The reaction products were resolved by gel electrophoresis in polyacrylamide gels. B. Cereus nuclease is a single strand specific RNase. The results are shown in FIG. 258A, wherein the sections of the ladder of digestion products corresponding to cleavage events occurring in the bulge and loop sections of the εRNA structure. […] Conversely, the loop and other regions of the structure where not affected.
# [1] = test system: RNA target containing only the bulge region of εRNA; test: melting temperature of bulge RNA (OD 260 nm); type: binding, Hepatitis B virus; conditions: 2 μM RNA plus 10 μM compound; RNA without drug 65° C.
# Method: The melting temperature of the RNA was determined by monitoring the change in optical density at 260 nm with increasing temperature.
# Further, a smaller RNA target containing only the bulge region of εRNA was prepared, and the melting temperature (tm) of this RNA structure was determined by monitoring the change in optical density (OD) at 260 nm while increasing the temperature. A 1 ml aliquot of reaction mixture contained 50 mM NaCl, 10 mM sodium cacodylate, pH 7.0, 10% DMSO, and 2 μM bulge RNA.
# [2] = neutral red dye uptake cytotoxicity; type: cell-based; conditions: human, 2.2.15 cells (confluent cultures), 9 days treatment, read-out: 50% Cell Death CC50
# In short: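 Confluent 2.2.15 cultures, same conditions as antiviral assay, treated daily for 9 days with 4 concentrations (3.3-fold dilutions), triplicate wells. 24 hours after the final dose, cells stained 30 minutes with 0.01% neutral red, dye extracted and A510 read; values as % of untreated cultures, CC50 as 50% cell death.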
compound,measurement,setting,value
CCCCN(CCCC)c1nc(NN=Cc2ccc([N+](=O)[O-])cc2)nc(Nc2ccc([N+](=O)[O-])cc2)n1 [Compound 5],protection of εRNA from RNase cleavage,εRNA,protects specific positions of RNA from digestion with RNases; also recorded: decrease in cleavage at specific positions of the bulge
Cc1[nH]c2ccccc2c1C=NNc1nc(Nc2ccccc2)nc(Nc2ccc([N+](=O)[O-])cc2)n1 [Compound 6],melting temperature (tm) of bulge RNA,[1],83 °C
"CCN(CC)c1nc(NCc2ccccc2)nc(N/N=C/c2ccccc2O)n1 [Compound 155, 2-hydroxybenzaldehyde N-[4-(benzylamino)-6-(diethylamino)-1,3,5-triazin-2-yl]hydrazone]",CC50 at 9 days,[2],59 µM
